GI50 and TGI data for eight compounds are collected here from PubChem BioAssay (NCI).

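These data come from cells grown in 96-well plates and exposed to compound for 48 hours at five concentrations. The concentration for 50% growth inhibition is given as GI50. Definition used: TGI = concentration required for complete inhibition of growth.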

Test systems include SNB-75 CNS; UACC-62 melanoma; OVCAR-8 ovarian; EKVX NSCLC; SF-268 CNS; LOX IMVI melanoma; HL-60(TB) leukemia; HOP-92 NSCLC; MDA-MB-231 breast; OVCAR-5 ovarian.
Holding throughout (test): DTP human tumour cell line panel, 48 h

By GI50 is commonly meant the concentration that inhibits growth by half. A word on the TGI: it is the concentration giving total growth inhibition. In the case of `CN[C@@H](C)C(=O)N[C@H](C(=O)N1CCC[C@H]1C(=O)N[C@H]1c2ccccc2C[C@H]1OCC#CC#CCO[C@@H]1Cc2ccccc2[C@@H]1NC(=O)[C@@H]1CCCN1C(=O)[C@@H](NC(=O)[C@H](C)NC)C1CCCCC1)C1CCCCC1`, the GI50 in the assay with SNB-75 CNS was under 0.01 µM; in the assay on UACC-62 melanoma, 4.57 µM; with OVCAR-8 ovarian, 0.452 µM; in the assay with EKVX NSCLC, 6.86 µM; with SF-268 CNS, 5.58 µM; with LOX IMVI melanoma, 1.7 µM. Further, the GI50 in the assay with HL-60(TB) leukemia was under 0.01 µM; with HOP-92 NSCLC, 0.479 µM; in the assay with MDA-MB-231 breast, under 0.01 µM; in the assay on OVCAR-5 ovarian it was 18.1 µM. Further, the concentration for total growth inhibition (TGI) in the assay on SNB-75 CNS turned out to be 1.16 µM; in the assay on UACC-62 melanoma it was 9.97 µM; with OVCAR-8 ovarian, 8.31 µM; in the assay on EKVX NSCLC, 20.6 µM; with SF-268 CNS, 13.5 µM; with LOX IMVI melanoma, 3.38 µM. Moreover, the TGI in the assay with HL-60(TB) leukemia worked out at 0.252 µM; with HOP-92 NSCLC, 2.48 µM; with OVCAR-5 ovarian it was 34.6 µM.
With `O=c1ccn(C2OC(CO)C(O)C2F)c(=O)[nH]1` (stereo unspecified), the concentration for total growth inhibition (TGI) was over 100 µM in the assay on SNB-75 CNS; over 1000 µM in the assay with UACC-62 melanoma; over 1000 µM in the assay with OVCAR-8 ovarian; over 1000 µM in the assay on EKVX NSCLC; over 1000 µM in the assay with SF-268 CNS; over 1000 µM with LOX IMVI melanoma. For the same compound, the TGI with HL-60(TB) leukemia, in the assay on HOP-92 NSCLC, in the assay with MDA-MB-231 breast and with OVCAR-5 ovarian was over 1000 µM in each case. The GI50 in the assay on UACC-62 melanoma, in the assay on OVCAR-8 ovarian, in the assay with EKVX NSCLC, in the assay with SF-268 CNS, in the assay on LOX IMVI melanoma and in the assay on HL-60(TB) leukemia was over 1000 µM in each case. Also, the GI50 in the assay on HOP-92 NSCLC, with MDA-MB-231 breast and with OVCAR-5 ovarian was over 1000 µM each time.
In the case of `CSc1ccc(C2=NN(C(=O)c3ccc(F)cc3)C(c3ccc(F)cc3)C2)cc1` (stereo unspecified), the GI50 is 13.1 µM with SNB-75 CNS; 11.7 µM in the assay with UACC-62 melanoma; 13.5 µM with OVCAR-8 ovarian; 18.9 µM in the assay on EKVX NSCLC; 2.69 µM in the assay with SF-268 CNS; 3.62 µM with LOX IMVI melanoma. In addition, the GI50 was 12 µM in the assay with HL-60(TB) leukemia, 9.72 µM with HOP-92 NSCLC, 14 µM with MDA-MB-231 breast and 18.2 µM in the assay with OVCAR-5 ovarian. In addition, the TGI was found to be 26 µM in the assay on SNB-75 CNS; 24.5 µM in the assay on UACC-62 melanoma; 28.9 µM in the assay on OVCAR-8 ovarian; 37 µM in the assay with EKVX NSCLC; 13.4 µM in the assay with SF-268 CNS; 12.3 µM in the assay on LOX IMVI melanoma. Also, the TGI with HL-60(TB) leukemia is 35.3 µM; in the assay with HOP-92 NSCLC, 24.6 µM; in the assay with MDA-MB-231 breast, 32.3 µM; in the assay with OVCAR-5 ovarian it was 33.3 µM.
With `COc1cc(OC)cc(C2CC(=O)Nc3c2c(C)nn3-c2nc3ccccc3[nH]2)c1` (stereo unspecified), the GI50 in the assay on SNB-75 CNS is 3.47 µM; with UACC-62 melanoma it was 1.94 µM; in the assay on OVCAR-8 ovarian, 3.97 µM; in the assay with EKVX NSCLC, 3.31 µM; in the assay with SF-268 CNS it was 3.57 µM; in the assay with LOX IMVI melanoma, 2.09 µM. The GI50 with HL-60(TB) leukemia is 2.34 µM; in the assay with HOP-92 NSCLC, 2.59 µM; in the assay on MDA-MB-231 breast it was 3.66 µM; with OVCAR-5 ovarian it was 4.15 µM. Also, the TGI in the assay on SNB-75 CNS was 9.65 µM; with UACC-62 melanoma, 4.01 µM; in the assay with OVCAR-8 ovarian it was over 100 µM; in the assay with EKVX NSCLC it was over 100 µM; with SF-268 CNS it was over 100 µM; in the assay on LOX IMVI melanoma, 4.44 µM. Further, the TGI in the assay on HL-60(TB) leukemia is 7.37 µM; with HOP-92 NSCLC it was 6.63 µM; in the assay with MDA-MB-231 breast, over 100 µM; in the assay with OVCAR-5 ovarian, over 100 µM.
For `COc1ccc(/C=N\NC(=O)CN2CCN(c3cc4c(cc3F)c(=O)c(C(=O)N/N=C/c3ccc(OC)c(OC)c3)cn4C3CC3)CC2)cc1OC`, the GI50 in the assay with SNB-75 CNS was 1.56 µM; in the assay on UACC-62 melanoma, 2.21 µM; with OVCAR-8 ovarian it was 3.81 µM; with EKVX NSCLC it was 6.06 µM; in the assay with SF-268 CNS, 2.53 µM; with LOX IMVI melanoma it was 3.22 µM. Moreover, the GI50 in the assay on HL-60(TB) leukemia was 3.36 µM; with HOP-92 NSCLC, 2.25 µM; with MDA-MB-231 breast, 2.33 µM; in the assay on OVCAR-5 ovarian it was 2.39 µM. Further, the TGI in the assay on SNB-75 CNS is 3.49 µM; in the assay on UACC-62 melanoma, 4.83 µM; in the assay on OVCAR-8 ovarian, 81.1 µM; in the assay on EKVX NSCLC it was over 100 µM; in the assay with SF-268 CNS, 7.12 µM; in the assay on LOX IMVI melanoma it was 11.3 µM. Moreover, the TGI in the assay on HL-60(TB) leukemia came out at 18.2 µM; with HOP-92 NSCLC, 6.9 µM; with MDA-MB-231 breast, 6.31 µM; with OVCAR-5 ovarian, 6.94 µM.
Take `O=C1c2ccccc2-c2c1c1ccccc1c(=O)n2CCCNCCCn1ccnc1`: the GI50 is 2.61 µM in the assay with SNB-75 CNS; 1.72 µM in the assay with UACC-62 melanoma; 2.44 µM in the assay on OVCAR-8 ovarian; 4.75 µM with EKVX NSCLC; 3.12 µM in the assay with SF-268 CNS; 0.45 µM in the assay on LOX IMVI melanoma. The GI50 is 0.653 µM with HL-60(TB) leukemia, 0.95 µM in the assay on HOP-92 NSCLC, 2.68 µM with MDA-MB-231 breast and 1.55 µM in the assay with OVCAR-5 ovarian. Also, the TGI with SNB-75 CNS is 9.84 µM; with UACC-62 melanoma it was 5.95 µM; in the assay with OVCAR-8 ovarian, over 37.3 µM; in the assay with EKVX NSCLC, 12.2 µM; in the assay with SF-268 CNS it was 23.2 µM; with LOX IMVI melanoma, 1.78 µM. For the same compound, the TGI in the assay on HL-60(TB) leukemia amounted to 5.01 µM; in the assay on HOP-92 NSCLC, 7.57 µM; in the assay on MDA-MB-231 breast, 7.36 µM; with OVCAR-5 ovarian, 4.93 µM.
For `CC1(C)C2CCC3=C(CCC4(C)C5C[C@](C)(C(=O)O)CC[C@]5(C)CC[C@]34C)[C@@]2(C)CC[C@@H]1O` (stereo partly specified), the TGI was 34.4 µM in the assay with SNB-75 CNS; 37.6 µM in the assay on UACC-62 melanoma; 53 µM with EKVX NSCLC; over 100 µM in the assay on SF-268 CNS; 31.2 µM in the assay on LOX IMVI melanoma; 50.4 µM in the assay on HL-60(TB) leukemia. Besides, the TGI was 38.7 µM in the assay with HOP-92 NSCLC, 33.8 µM with MDA-MB-231 breast and over 100 µM in the assay on OVCAR-5 ovarian.
As to `C[C@]12C[C@H](c3ccccc3)Nc3ccccc3N1C(c1ccccc1)=NO2`, the TGI is over 100 µM in the assay with SNB-75 CNS; over 100 µM in the assay with UACC-62 melanoma; over 100 µM with OVCAR-8 ovarian; 92.6 µM in the assay on EKVX NSCLC; over 100 µM in the assay with SF-268 CNS; over 100 µM in the assay with HL-60(TB) leukemia. Also, the TGI with HOP-92 NSCLC, in the assay on MDA-MB-231 breast and with OVCAR-5 ovarian was over 100 µM in each case.
